Data on 10 molecules can be found in patent US20230330064A1, “TYROSINE, TRYPTOPHAN AND PHENYLALANINE AS mTOR AGONISTS MEDIATING PROTEASOME DYNAMICS, COMPOSITIONS, METHODS AND USES THEREOF IN THERAPY, AND PROGNOSTIC METHODS FOR DRUG-RESISTANCE” (Technion Research & Development Foundation Limited, priority 2020, published 2023).

The test system of assay [1] is 26S proteasome. The assay is described as follows: Proteasome subcellular localization in cultured cells (immunofluorescence, western blot of nuclear fractions). It is filed as cell-based. Conditions: for proteasome localization without exogenous starvation: non-stressed cells, complete medium; for starvation-induced proteasome translocation from the nucleus to the cytosol: substance added to amino acid starvation medium, 8 h. The protocol: Cells were seeded on glass cover slips for 36 h. Following the indicated treatments, they were fixed with 4% PFA for 15 min, washed with (phosphate-buffered saline) PBS and incubated in PBS containing 10% goat serum for 1h at room temperature, followed by 2 h incubation with the indicated primary antibody. Following extensive wash with PBS, the fixed cells were incubated with the relevant secondary antibody for 1 h, washed and mounted. Images were acquired using Zeiss LSM 700 confocal microscope (Zeiss, Oberkochen, Germany).
The proteasome subunits α6, β1, and PSMD1 were visualized via indirect immunofluorescence, using primary and secondary antibodies listed under Key Resources Table. To observe the proteasome in live cells, we expressed the cDNAs of the β4, Rpn2, Rpn6, and Rpn13 proteasome subunits C-terminally fused with GFP. Photoconversion of proteasome-fused Dendra2 was carried out as previously described (McKinney et al., 2009 Nat Methods. 131-133).
Cells were incubated for 20 min in fractionation buffer [20 mM HEPES pH 7.3, 10 mM KCl, 5 mM ATP, 5 mM MgCl2, and protease inhibitor cocktail (Roche)], followed by the addition of NP-40 (to 0.1%). They were then mixed thoroughly and centrifuged at 1,000×g for 5 min. The supernatant was collected as cytosolic fraction, and the pellet (nuclei) was washed twice with PBS. To dissolve the nuclear pellet, fractionation buffer supplemented with 0.5% sodium deoxycholate was added followed by sonication.
Cells were washed twice with ice cold PBS and scraped into lysis buffer (50 mM Tris-HCl, pH 7.4, 130 mM NaCl, 0.5% NP-40) supplemented with freshly added protease inhibitor cocktail, 5 mM ATP, 10 mM iodoacetamide, and 5 mM N-ethyl maleimide. Protein concentration was measured by the BCA assay according to the manufacturer's instructions (Pierce, Rockford, IL). 30 μg of cellular protein were resolved via SDS-PAGE, transferred to a nitrocellulose membrane and immunoblotted with the appropriate antibody.
Background: Immunoblotting shows a protein as a band on a membrane.

Assay [2] concerns the target proteasome subunit beta type-5 (PSMB5) (Homo sapiens, UniProt P20618+P28074). The following applies: cited from earlier work.
Assay [3] has as its system tumor. Conditions: in vivo; cited from earlier work.
Assay [4] has as its system human bladder cancer T24 cell line. Conditions: cited from earlier work.
Assay [5] has as its target L-type amino acid transporter 1 (LAT-1) (Homo sapiens, UniProt Q01650). Conditions: cited from earlier work.

L-type amino acid transporter 1 (LAT-1), sequence (Q01650 whole entry): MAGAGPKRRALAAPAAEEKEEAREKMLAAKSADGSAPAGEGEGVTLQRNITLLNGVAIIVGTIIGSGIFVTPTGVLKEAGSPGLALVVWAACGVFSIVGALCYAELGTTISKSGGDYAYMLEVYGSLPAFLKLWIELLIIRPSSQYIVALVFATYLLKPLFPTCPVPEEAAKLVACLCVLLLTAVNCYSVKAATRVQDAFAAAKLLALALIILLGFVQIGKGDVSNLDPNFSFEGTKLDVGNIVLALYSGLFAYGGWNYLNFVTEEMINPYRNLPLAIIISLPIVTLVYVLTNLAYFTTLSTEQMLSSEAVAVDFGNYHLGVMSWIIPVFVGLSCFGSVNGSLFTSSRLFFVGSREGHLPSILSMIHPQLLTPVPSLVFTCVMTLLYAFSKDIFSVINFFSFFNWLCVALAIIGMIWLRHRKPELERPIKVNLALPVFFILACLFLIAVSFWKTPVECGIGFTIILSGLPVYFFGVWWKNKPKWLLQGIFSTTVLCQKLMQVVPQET
L-type amino acid transporter 1 (LAT-1), sequence (P08195 102-630 partner): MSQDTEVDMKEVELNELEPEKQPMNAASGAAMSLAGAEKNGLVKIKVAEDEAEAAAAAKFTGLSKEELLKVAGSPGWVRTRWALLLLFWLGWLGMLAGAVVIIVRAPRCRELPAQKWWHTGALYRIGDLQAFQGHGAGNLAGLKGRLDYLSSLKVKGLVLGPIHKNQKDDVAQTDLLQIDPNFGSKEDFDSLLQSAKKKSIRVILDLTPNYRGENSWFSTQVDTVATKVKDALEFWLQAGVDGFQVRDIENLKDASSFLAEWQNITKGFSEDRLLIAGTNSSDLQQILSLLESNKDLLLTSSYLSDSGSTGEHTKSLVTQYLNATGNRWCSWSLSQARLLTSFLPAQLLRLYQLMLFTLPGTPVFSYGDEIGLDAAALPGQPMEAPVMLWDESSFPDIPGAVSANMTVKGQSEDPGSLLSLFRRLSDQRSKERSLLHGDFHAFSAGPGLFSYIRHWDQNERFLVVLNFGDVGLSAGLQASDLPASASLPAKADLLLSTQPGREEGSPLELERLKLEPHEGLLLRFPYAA

Regarding Ivermectin, in assay [1], the “proteasome localization without exogenous starvation” value is listed as “cytosolic accumulation”. As for `N[C@@H](Cc1ccc(O)cc1)C(=O)O` [Tyr, 4-hydroxyphenylalanine], the “starvation-induced proteasome translocation from the nucleus to the cytosol” value in assay [1] is reported as “significant effect”. As for `CC(C)C[C@H](NC(=O)CNC(=O)c1cc(Cl)ccc1Cl)B(O)O` [Ixazomib, N^2-(2,5-Dichlorobenzoyl)-N-[(1R)-1-(dihydroxyboryl)-3-methylbutyl]glycinamide], the “mode of PSMB5 inhibition” value in assay [2] was “selectively and reversibly inhibits”.

As for `Cn1cnc(N)c2ncnc1-2` [3-MA, 3-methyl adenine], the “proteasome localization without exogenous starvation” value in assay [1] was “induced the same effect”. The same measure, in the same setting: then `CCC(=O)N1CCN(c2ccc(-n3c(=O)ccc4cnc5ccc(-c6cnc7ccccc7c6)cc5c43)cc2C(F)(F)F)CC1` [Torin1], with “induces nuclear export of both 20S and 19S sub-complexes”. On to `N[C@@H](Cc1cccc(Oc2ccc3ccccc3c2)c1)C(=O)O` [3-(2-naphthyloxy)-L-phenylalanine], for which the tumor growth result in assay [3] is on record as “inhibition of tumor growth”. Besides, in assay [4], the “T24 cell line proliferation” value was “inhibition”. Also, the “intracellular 14C-Leucine” value in assay [5] is on record as “reduction”.

Tunicamycin: the “proteasome localization without exogenous starvation” value in assay [1] is reported as “inducing proteasome nuclear export”. Turning to `CC(C)C[C@H](NC(=O)[C@H](CCc1ccccc1)NC(=O)CN1CCOCC1)C(=O)N[C@@H](Cc1ccccc1)C(=O)N[C@@H](CC(C)C)C(=O)[C@@]1(C)CO1` [carfilzomib, (2S)-4-Methyl-N-[(2S)-1-[[(2S)-4-methyl-1-[(2R)-2-methyloxiran-2-yl]-1-oxopentan-2-yl]amino]-1-oxo-3-phenylpropan-2-yl]-2-[[(2S)-2-[(2-morpholin-4-ylacetyl)amino]-4-phenylbutanoyl]amino]pentanamide], the “mode of PSMB5 inhibition” value in assay [2] is listed as “irreversibly”. For `C[C@@H]1C[C@@H]([C@H](O)CC2CC(=O)NC(=O)C2)C(=O)[C@@H](C)C1` [cycloheximide], the “reappearance of the proteasome in the nucleus after amino acid replenishment” value in assay [1] (8 h starvation, then replenishment in presence of the substance) is reported as “does not prevent the reappearance of the proteasome in the nucleus”. As to `N[C@@H](Cc1c[nH]c2ccccc12)C(=O)O` [Trp, Tryptophan], the “starvation-induced proteasome translocation from the nucleus to the cytosol” value in assay [1] is given as “significant effect”.
